# Measurements: PubChem BioAssay AID179 (DTP/NCI, 2004)
# Calls of active or inactive are those of the source.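 How the source made its calls: active means compounds giving half or more protection of infected cells from virus-caused growth loss, again on retest; inactive means the rest.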 Where a SMILES comes first, the peptide text is derived from it.
# Tested on: CEM cells HIV-1 protection, formazan growth assay
# Test: NCI AIDS Antiviral Assay
# Settings: for IC50: measured here: growth of uninfected CEM cells
# How it was run: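 CEM (human) cells, HIV-1 infected vs uninfected, 5-point dosing, formazan growth read-out. Retest threshold 50% protection.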
Compound,EC50 [µM],IC50 [µM],outcome
COc1cc(N=Nc2c(O)c3ccccc3[nH]c2=O)c(OC)cc1N=Nc1ccccc1,> 100,> 100,–
CCCCc1ccc(N=C(N)N)cc1,> 200,28.8,–
Cc1cc(=O)c2c(=O)oc3c4ccccc4ccc3c2o1,> 200,105,–
CCCCCCCN=C(N)CSSCC(N)=NCCCCCCC,> 331,10.2,–
COC(=O)CCC(=O)CC(=O)C1=NS(=O)(=O)c2nc(S(N)(=O)=O)c(Cl)cc2N1,0.38,550,–
CC(C)c1oc(=O)cc2c1C(O)C1OC(=O)C3(C)C(O)C4OC4C2(C)C13 (configuration not stated),> 36.3,0.17,–
CN1N=C(N)c2cn(C3OC(COP(=O)(O)O)C(O)C3O)c3ncnc1c23 (configuration not stated),> 57.5,21.4,–
CCc1ccccc1NC(=O)C(=O)C(C#N)c1ccccc1Cl (configuration not stated),> 380,> 380,–
CCOC(=O)/C(C#N)=C/c1cccc([N+](=O)[O-])c1,> 21.4,> 21.4,–
COc1cccc(N2CCc3c(C)c(C#N)c4nc5ccccc5n4c32)c1,> 100,> 100,–
O=c1[nH][nH]c(=O)c2nc(Nc3ccccc3)ncc12,> 28.2,> 28.2,–
COc1ccc(C2OC(=O)c3c2ccc2ccccc32)c(C)c1 (configuration not stated),> 44.7,27.5,–
CC(=O)NC1C(O)OC(CO)C(O)C1OC(C)C(=O)N[C@@H](CC(N)=O)C(=O)N[C@H](CCC(=O)O)C(N)=O (some centres not stated),> 468,219,–
CC(=O)OCC(=O)[C@@]1(O)CC[C@H]2[C@@H]3CCC4=CC(=O)C[C@H](SC(C)=O)[C@]4(C)[C@H]3CC[C@@]21C,> 200,117,–
O=C1CC(=O)NP(=O)(Oc2ccccc2)N1,> 1050,> 1050,–
N#COc1ccc(Oc2ccccc2)cc1,> 24.5,> 24.5,–

Compound,EC50 [µM],IC50 [µM],outcome
O=C1c2ccccc2C(=O)C1(Cl)C1(S(=O)(=O)O)c2ccccc2-c2ccccc21,–,–,inactive
CC(C)(C)[Si](C)(C)OC1C(=O)C(CO)OC1n1ccc(=O)[nH]c1=O (configuration not stated),> 200,> 200,–
CCOC(=O)c1ccc(CS(=O)(=O)c2ccc([N+](=O)[O-])cc2)c([N+](=O)[O-])c1,> 91.2,60.3,–
CCOC(=O)CSc1nnc(CSc2nc(-c3ccccc3)c(-c3ccccc3)[nH]2)n1-c1ccccc1,> 13.5,> 13.5,–
C=C1CCC(=O)NC1=O,–,–,inactive
Nc1nnc2c(n1)[nH]c1ccccc12,> 74.1,> 74.1,–
O=S(=O)(O)CCCCBr,> 200,> 200,–
CCO[C@H]1OC(=O)[C@@H]2C(c3ccc([N+](=O)[O-])cc3)=NO[C@H]12,> 46.8,> 46.8,–
CCC(C)C(NC(=O)CNC(=O)C(Cc1cnc[nH]1)NC(=O)C(NC(=O)C(CS)NC(=O)C(CCC(N)=O)NC(=O)C(NC(=O)C(NC(=O)C(CO)NC(=O)C(NC(=O)C(CC(N)=O)NC(=O)C(NC(=O)C(CO)NC(=O)C1CCCN1C(=O)CNC(=O)C(NC(=O)CN)C(C)O)C(C)O)C(C)C)C(C)O)C(C)C)C(C)O)C(=O)NC(CCCN=C(N)N)C(N)=O (configuration not stated) (H-GTGPSTNVSTVQCTHGIR-NH2; configuration not given here),> 50.1,> 50.1,–
CCOc1cc2cnc3c4cc(OC)c(OC)cc4ccc3c2cc1OC,> 70.8,34.7,–
N#CC1(c2ccccc2)C(c2ccccc2)CC(O)(c2ccccc2)C(C(=O)c2ccccc2)C1c1ccccc1 (configuration not stated),> 100,15.1,–
O=c1cc2ccccc2nn1-c1ccccc1Cl,> 263,110,–
CC(C)(C)[Si](C)(C)OCC1OC(n2cnc3c(=O)[nH]c(NC(=O)c4ccccc4)nc32)C(O[Si](C)(C)C(C)(C)C)C1O[Si](C)(C)C(C)(C)C (configuration not stated),> 200,9.12,–
C=C(C)C(OC(C)=O)C(OCC)c1c(OC)ccc2ccc(=O)oc12 (configuration not stated),> 50.1,> 50.1,–
CCOC(=O)N1CCN(c2c(C)nc(C)[nH]c2=O)CC1,> 200,> 200,–
Cc1c2ccccc2c(CSCC(N)C(=O)O)c2ccccc12 (configuration not stated),> 200,> 200,–
